Legend:
Format in all cases: in vivo, C57BL/6JNarl mice (male)
[1] = test system: MAFLD-mode mice (diet with 60% kcal fat+30% v/v fructose corn syrup); assay: Analysis of the hepatic lipid content (enzymatic colorimetric method) of MAFLD-mode mice; conditions: eight weeks, liver; for hVLDL (hepatic very-low-density lipoprotein): calculated as 1/5 of the hepatic triglyceride level;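 as to hTC (hepatic total cholesterol): reported in mg/dL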;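 as to hTG (hepatic triglyceride): reported in mg/dL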;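 as to hVLDL (hepatic very-low-density lipoprotein): reported in mg/dL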
Experimental: (§1) 100 five-week-old C57BL/6JNarl mice (male) were raised in an environment whose temperature was 22-25° C., whose relative humidity was 45%-60%, and which adopted a 12-hour light/12-hour darkness cycle. The mice were fed with common feed and water for three weeks and then randomly divided into 10 groups, whose subsequent treatments are as follows:
(§2) Each of the four peptides was mixed with 0.5% Carboxymethyl Cellulose (CMC) to form a peptide solution, before the peptide solution was fed into the stomach of each mouse in the corresponding group with a syringe.
(§3) The test lasted eight weeks. The body weights of, and the amounts of food consumed by, the mice in each group were measured and recorded each week. The mice were sacrificed at the end of the test, and the livers, spleens, and white adipose tissue of the mice in each group were weighed.
After the test of example 1, the mice in each group were sacrificed, and the livers of the mice were collected in order to measure the hepatic lipid content of the liver of each mouse by an enzymatic colorimetric method. The items measured were hepatic triglyceride (hTG), hepatic total cholesterol (hTC), hepatic free fatty acid (hFFA), and hepatic very-low-density lipoprotein (hVLDL), wherein the hVLDL level was calculated as ⅕ of the hepatic triglyceride level.

[2] = test system: MAFLD-mode mice (diet with 60% kcal fat+30% v/v fructose corn syrup); assay: Animal test: body, liver, spleen and white adipose tissue weights of MAFLD-mode mice; conditions: for Epididymal white adipose tissue / Final body weight / Liver weight / Mesenteric white adipose tissue / Perirenal white adipose tissue / Spleen weight: eight weeks, high-fat/fructose diet; for Initial body weight: before the eight-week test
Experimental: as §1
Group 1: This was the blank group. The mice in this group were fed with common animal feed and distilled water.
Group 2: This was the control group. The mice in this group were fed with a diet with 60% kcal fat+30% v/v fructose corn syrup (and a 0.5% carboxymethyl cellulose (CMC) solution) and thereby induced to develop into MAFLD-mode mice.
Group 3: This was the low-dosage YF dipeptide group. The mice in this group were fed with the Tyr-Phe dipeptide at a dose of 10 mg/kg/day, in addition to a diet with 60% kcal fat+30% v/v fructose corn syrup.
Group 4: This was the high-dosage YF dipeptide group. The mice in this group were fed with the Tyr-Phe dipeptide at a dose of 50 mg/kg/day, in addition to a diet with 60% kcal fat+30% v/v fructose corn syrup.
Group 5: This was the low-dosage FY dipeptide group. The mice in this group were fed with the Phe-Tyr dipeptide at a dose of 10 mg/kg/day, in addition to a diet with 60% kcal fat+30% v/v fructose corn syrup.
Group 6: This was the high-dosage FY dipeptide group. The mice in this group were fed with the Phe-Tyr dipeptide at a dose of 50 mg/kg/day, in addition to a diet with 60% kcal fat+30% v/v fructose corn syrup.
Group 7: This was the low-dosage EWYF tetrapeptide group. The mice in this group were fed with the Glu-Trp-Tyr-Phe tetrapeptide (which has the sequence of SEQ ID No.: 1) at a dose of 10 mg/kg/day, in addition to a diet with 60% kcal fat+30% v/v fructose corn syrup.
Group 8: This was the high-dosage EWYF tetrapeptide group. The mice in this group were fed with the Glu-Trp-Tyr-Phe tetrapeptide (which has the sequence of SEQ ID No.: 1) at a dose of 50 mg/kg/day, in addition to a diet with 60% kcal fat+30% v/v fructose corn syrup.
Group 9: This was the low-dosage EWFY tetrapeptide group. The mice in this group were fed with the Glu-Trp-Phe-Tyr tetrapeptide (which has the sequence of SEQ ID No.: 2) at a dose of 10 mg/kg/day, in addition to a diet with 60% kcal fat+30% v/v fructose corn syrup.
Group 10: This was the high-dosage EWFY tetrapeptide group. The mice in this group were fed with the Glu-Trp-Phe-Tyr tetrapeptide (which has the sequence of SEQ ID No.: 2) at a dose of 50 mg/kg/day, in addition to a diet with 60% kcal fat+30% v/v fructose corn syrup.
as §2, §3

[3] = test system: MAFLD-mode mice (diet with 60% kcal fat+30% v/v fructose corn syrup); assay: Biochemical analysis of blood (sALT and serum lipid indices) of MAFLD-mode mice; conditions: eight weeks
Experimental: as §1, §2, §3
After the test of example 1, blood samples were taken from the mice in each group, and the serum alanine transaminase (sALT), serum triglyceride (sTG), serum total cholesterol (sTC), serum free fatty acid (sFFA), and serum very-low-density lipoprotein (sVLDL) levels of the blood samples were measured.

[4] = baseline of the 10 mg/kg/day group
[5] = baseline of the 50 mg/kg/day group

Substance	hFFA (hepatic free fatty acid) ([1]; 10 mg/kg/day)	hTC (hepatic total cholesterol) ([1]; 10 mg/kg/day)	hTG (hepatic triglyceride) ([1]; 10 mg/kg/day)	hVLDL (hepatic very-low-density lipoprotein) ([1]; 10 mg/kg/day)	hFFA (hepatic free fatty acid) ([1]; 50 mg/kg/day)	hTC (hepatic total cholesterol) ([1]; 50 mg/kg/day)	hTG (hepatic triglyceride) ([1]; 50 mg/kg/day)	hVLDL (hepatic very-low-density lipoprotein) ([1]; 50 mg/kg/day)	Epididymal white adipose tissue ([2]; 10 mg/kg/day into the stomach)	Final body weight ([2]; 10 mg/kg/day into the stomach)	Liver weight ([2]; 10 mg/kg/day into the stomach)	Mesenteric white adipose tissue ([2]; 10 mg/kg/day into the stomach)	Perirenal white adipose tissue ([2]; 10 mg/kg/day into the stomach)	Spleen weight ([2]; 10 mg/kg/day into the stomach)	Epididymal white adipose tissue ([2]; 50 mg/kg/day into the stomach)	Final body weight ([2]; 50 mg/kg/day into the stomach)	Liver weight ([2]; 50 mg/kg/day into the stomach)	Mesenteric white adipose tissue ([2]; 50 mg/kg/day into the stomach)	Perirenal white adipose tissue ([2]; 50 mg/kg/day into the stomach)	Spleen weight ([2]; 50 mg/kg/day into the stomach)	also measured
Glu-Trp-Phe-Tyr (EWFY) [groups 9 (10 mg/kg/day) and 10 (50 mg/kg/day)]	111.78 ± 27.75 mEq/L	11.04 ± 1.11 mg/dL	41.45 ± 9.45 mg/dL	8.29 ± 1.89 mg/dL	74.05 ± 19.5 mEq/L	5.96 ± 0.91 mg/dL	22.47 ± 4.84 mg/dL	4.49 ± 0.97 mg/dL	1.294 ± 0.330 g	30.04 ± 1.70 g	1.028 ± 0.068 g	0.276 ± 0.081 g	0.513 ± 0.132 g	56.6 ± 7.0 mg	0.983 ± 0.231 g	28.59 ± 1.82 g	0.985 ± 0.072 g	0.234 ± 0.056 g	0.445 ± 0.077 g	53.5 ± 5.7 mg	Initial body weight [2, 4]: 22.89 ± 1.08 g; Initial body weight [2, 5]: 22.78 ± 1.79 g; sALT (serum alanine transaminase) ([3]; 10 mg/kg/day): 45.6 ± 13.91 IU/L; sFFA (serum free fatty acid) ([3]; 10 mg/kg/day): 0.849 ± 0.235 mEq/L; sTC (serum total cholesterol) ([3]; 10 mg/kg/day): 147.45 ± 25.19 mg/dL; sTG (serum triglyceride) ([3]; 10 mg/kg/day): 100.53 ± 20.83 mg/dL; sVLDL (serum very-low-density lipoprotein) ([3]; 10 mg/kg/day): 20.11 ± 4.17 mg/dL; sALT (serum alanine transaminase) ([3]; 50 mg/kg/day): 34.2 ± 16.20 IU/L; sFFA (serum free fatty acid) ([3]; 50 mg/kg/day): 0.757 ± 0.303 mEq/L; sTC (serum total cholesterol) ([3]; 50 mg/kg/day): 135.78 ± 23.48 mg/dL; sTG (serum triglyceride) ([3]; 50 mg/kg/day): 91.47 ± 18.50 mg/dL; sVLDL (serum very-low-density lipoprotein) ([3]; 50 mg/kg/day): 18.29 ± 3.70 mg/dL
Tyr-Phe [YF]	110.93 ± 21.96 mEq/L	11.22 ± 1.23 mg/dL	41.81 ± 8.32 mg/dL	8.36 ± 1.66 mg/dL	98.90 ± 24.07 mEq/L	9.76 ± 1.45 mg/dL	36.95 ± 8.33 mg/dL	7.39 ± 1.67 mg/dL	1.452 ± 0.433 g	30.22 ± 2.07 g	0.996 ± 0.094 g	0.298 ± 0.088 g	0.526 ± 0.069 g	59.9 ± 8.2 mg	1.182 ± 0.265 g	28.98 ± 1.76 g	0.982 ± 0.085 g	0.251 ± 0.056 g	0.481 ± 0.080 g	53.8 ± 6.4 mg	Initial body weight [2, 4]: 22.82 ± 1.01 g; Initial body weight [2, 5]: 22.84 ± 1.25 g; sALT (serum alanine transaminase) ([3]; 10 mg/kg/day): 44.4 ± 15.09 IU/L; sFFA (serum free fatty acid) ([3]; 10 mg/kg/day): 0.932 ± 0.336 mEq/L; sTC (serum total cholesterol) ([3]; 10 mg/kg/day): 155.01 ± 25.12 mg/dL; sTG (serum triglyceride) ([3]; 10 mg/kg/day): 103.38 ± 22.62 mg/dL; sVLDL (serum very-low-density lipoprotein) ([3]; 10 mg/kg/day): 20.68 ± 4.52 mg/dL; sALT (serum alanine transaminase) ([3]; 50 mg/kg/day): 36.3 ± 15.97 IU/L; sFFA (serum free fatty acid) ([3]; 50 mg/kg/day): 0.813 ± 0.243 mEq/L; sTC (serum total cholesterol) ([3]; 50 mg/kg/day): 140.70 ± 22.66 mg/dL; sTG (serum triglyceride) ([3]; 50 mg/kg/day): 95.19 ± 24.70 mg/dL; sVLDL (serum very-low-density lipoprotein) ([3]; 50 mg/kg/day): 19.04 ± 4.94 mg/dL
Glu-Trp-Tyr-Phe (EWYF) [groups 7 (10 mg/kg/day) and 8 (50 mg/kg/day)]	108.17 ± 26.92 mEq/L	10.74 ± 1.38 mg/dL	39.45 ± 9.93 mg/dL	7.89 ± 1.99 mg/dL	87.71 ± 21.90 mEq/L	8.19 ± 1.07 mg/dL	31.49 ± 8.04 mg/dL	6.29 ± 1.61 mg/dL	1.146 ± 0.306 g	29.76 ± 1.77 g	0.988 ± 0.084 g	0.263 ± 0.070 g	0.499 ± 0.060 g	55.5 ± 6.4 mg	0.909 ± 0.269 g	27.42 ± 1.97 g	0.973 ± 0.089 g	0.199 ± 0.061 g	0.418 ± 0.104 g	51.2 ± 5.9 mg	Initial body weight [2, 4]: 22.84 ± 1.71 g; Initial body weight [2, 5]: 22.82 ± 1.13 g; sALT (serum alanine transaminase) ([3]; 10 mg/kg/day): 39.3 ± 20.17 IU/L; sFFA (serum free fatty acid) ([3]; 10 mg/kg/day): 0.782 ± 0.309 mEq/L; sTC (serum total cholesterol) ([3]; 10 mg/kg/day): 139.71 ± 20.52 mg/dL; sTG (serum triglyceride) ([3]; 10 mg/kg/day): 96.18 ± 21.42 mg/dL; sVLDL (serum very-low-density lipoprotein) ([3]; 10 mg/kg/day): 19.24 ± 4.28 mg/dL; sALT (serum alanine transaminase) ([3]; 50 mg/kg/day): 27.9 ± 14.00 IU/L; sFFA (serum free fatty acid) ([3]; 50 mg/kg/day): 0.692 ± 0.24 mEq/L; sTC (serum total cholesterol) ([3]; 50 mg/kg/day): 126.96 ± 24.59 mg/dL; sTG (serum triglyceride) ([3]; 50 mg/kg/day): 81.84 ± 20.39 mg/dL; sVLDL (serum very-low-density lipoprotein) ([3]; 50 mg/kg/day): 16.37 ± 4.08 mg/dL
Phe-Tyr [FY]	119.27 ± 29.07 mEq/L	12.06 ± 1.19 mg/dL	44.58 ± 6.77 mg/dL	8.92 ± 1.35 mg/dL	112.49 ± 25.02 mEq/L	10.97 ± 1.2 mg/dL	41.49 ± 8.52 mg/dL	8.30 ± 1.70 mg/dL	1.328 ± 0.234 g	30.10 ± 1.29 g	1.037 ± 0.089 g	0.289 ± 0.055 g	0.544 ± 0.077 g	58.8 ± 7.2 mg	1.220 ± 0.301 g	28.93 ± 1.27 g	0.991 ± 0.078 g	0.257 ± 0.067 g	0.487 ± 0.098 g	54.2 ± 5.6 mg	Initial body weight [2, 4]: 22.88 ± 1.09 g; Initial body weight [2, 5]: 22.75 ± 1.10 g; sALT (serum alanine transaminase) ([3]; 10 mg/kg/day): 53.1 ± 21.40 IU/L; sFFA (serum free fatty acid) ([3]; 10 mg/kg/day): 1.03 ± 0.338 mEq/L; sTC (serum total cholesterol) ([3]; 10 mg/kg/day): 158.43 ± 20.37 mg/dL; sTG (serum triglyceride) ([3]; 10 mg/kg/day): 106.80 ± 23.45 mg/dL; sVLDL (serum very-low-density lipoprotein) ([3]; 10 mg/kg/day): 21.36 ± 4.69 mg/dL; sALT (serum alanine transaminase) ([3]; 50 mg/kg/day): 42.6 ± 17.60 IU/L; sFFA (serum free fatty acid) ([3]; 50 mg/kg/day): 0.905 ± 0.179 mEq/L; sTC (serum total cholesterol) ([3]; 50 mg/kg/day): 146.76 ± 19.73 mg/dL; sTG (serum triglyceride) ([3]; 50 mg/kg/day): 97.80 ± 22.91 mg/dL; sVLDL (serum very-low-density lipoprotein) ([3]; 50 mg/kg/day): 19.56 ± 4.58 mg/dL

Reference: patent US20240409581A1, “SMALL-MOLECULE PEPTIDE AND USE THEREOF AGAINST METABOLIC-[…] LIVER DISEASE AND FOR REDUCING BODY WEIGHT” (Tunghai University, priority 2023, published 2024)
